Test results taken from paper PMC11408619 (2024).

System: Bsu PreQ1 RNA (MFS construct) (RNA, riboswitch) UCGGCGAUCUACGCAGCGACAUAAUAAGAGGUUCUAGCUACACCCUCUAUAAAAAACUAAUAACAACCACUUCCUAAUCUGUCAUCUUCUG
Assay: magnetic force spectroscopy, fraction of high-force cycles
Settings: 100 mM KCl, 1 mM MgCl2; 50 mM HEPES pH 7.4, 1% DMSO, 22 °C

- KD/EC50: 58.8 ± 6.3 nM
Structure (SMILES): NCc1c[nH]c2nc(N)[nH]c(=O)c12
